From the supplement of paper PMC10307832

Tests used:
Experiment in all cases: relative viability (nuclei count vs DMSO), 5 days (fraction); higher = more cells survive
[1] = compound: COC1=CC=C(C=C1)CN2C=CC3=C2C=C(C=C3)C(=O)NO + CC1(C)CCC(c2ccc(Cl)cc2)=C(CN2CCN(c3ccc(C(=O)NS(=O)(=O)c4ccc(N[C@H](CCN5CCOCC5)CSc5ccccc5)c(S(=O)(=O)C(F)(F)F)c4)cc3)CC2)C1 [Navitoclax] (partner 0.5 µM)
In short: (§1)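 For relative viability, nuclei counts in treated wells were divided by those in vehicle wells. Lung cancer cell lines had been pin-tool dosed in 1536-well plates the day after seeding and cultured for 5 days, then fixed and stained in one step (final 0.05% Triton X-100, 1% formaldehyde, 1 ug/ml Hoechst) and imaged at 4×. Doses were one drug alone or a fixed anchor-drug dose plus five library-drug doses (not always all listed) in √10 steps, and values are duplicate-plate medians.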

[2] = compound: C[C@]1(c2nc3c(C(N)=O)cccc3[nH]2)CCCN1 [Veliparib] + CC1(C)CCC(c2ccc(Cl)cc2)=C(CN2CCN(c3ccc(C(=O)NS(=O)(=O)c4ccc(N[C@H](CCN5CCOCC5)CSc5ccccc5)c(S(=O)(=O)C(F)(F)F)c4)cc3)CC2)C1 [Navitoclax] (partner 0.5 µM)
In short: as §1

[3] = compound: C[C@]1(c2nc3c(C(N)=O)cccc3[nH]2)CCCN1 [Veliparib] + C[C@]1(O)C[C@@H](c2nc(-c3ccc4ccc(-c5ccccc5)nc4c3)c3c(N)nccn32)C1 [Linsitinib] (partner 1 µM)
In short: as §1

[4] = compound: C[C@]1(c2nc3c(C(N)=O)cccc3[nH]2)CCCN1 [Veliparib] + CC(=O)c1c(C)c2cnc(Nc3ccc(N4CCNCC4)cn3)nc2n(C2CCCC2)c1=O [Palbociclib] (partner 0.5 µM)
In short: as §1

## SW 1573
[1]; first compound 0.253 µM
  relative viability: 0.943
[1]; first compound 0.8 µM
  relative viability: 1.19
[1]; first compound 2.53 µM
  relative viability: 0.961
[1]; first compound 8 µM
  relative viability: 0.946
[2]; first compound 0.02 µM
  relative viability: 1.02
[2]; first compound 0.06325 µM
  relative viability: 0.934
[2]; first compound 0.2 µM
  relative viability: 1.1
[2]; first compound 0.6325 µM
  relative viability: 0.736
[2]; first compound 2 µM
  relative viability: 0.93
[3]; first compound 0.02 µM
  relative viability: 0.977
[3]; first compound 0.06325 µM
  relative viability: 0.845
[3]; first compound 0.2 µM
  relative viability: 0.819
[3]; first compound 0.6325 µM
  relative viability: 0.767
[3]; first compound 2 µM
  relative viability: 0.79
[4]; first compound 0.06325 µM
  relative viability: 0.337
[4]; first compound 0.2 µM
  relative viability: 0.431
[4]; first compound 0.6325 µM
  relative viability: 0.382
[4]; first compound 2 µM
  relative viability: 0.445
